Measured values reported in patent US7531320B2, “Modulation of β-catenin/TCF-activated transcription” (priority 2003, dated 2009).

Tests used:
Assay type in all cases: cell-based, human
cyclin D1 = assay: Real Time RT-PCR in SW480 cells, cyclin D1; conditions: 25 μM; for ΔCT cyclin D1: relative to β-actin
Description: (§1) The RNeasy Midi Kit (Qiagen) was used for RNA extraction and Real Time RT-PCR was performed according to the protocol provided with the SYBR Green PCR Master Mix Kit (Perkin Elmer Biosystems, Shelton, Conn.). The primers used for cyclin D1, axin2, hnkd, c-myc, c-jun, and fra-1 amplifications were: cyclin D1 forward primer:5′-[…]-CCTGCTG-3′ (SEQ ID NO: 32) reverse primer: 5′-[…]-3′ (SEQ ID NO: 33) leading to a product size of approximately 300 bp; axin2 forward primer: 5′-[…] GGAAA-CT-3′ (SEQ ID NO: 34) and reverse primer: 5′-[…]-GAGA-3′ (SEQ ID NO: 35); hnkd forward primer: 5′-[…] TTGCGT-3′ (SEQ ID NO: 36) and the reverse primer: 5′-[…] ACGT-3′ (SEQ ID NO: 37); c-myc forward primer: 5′-GAA-[…] CTGC-3′ (SEQ ID NO: 38) and reverse primer: 5′-[…]-G-3′ (SEQ ID NO: 39); c-jun forward primer: 5′-[…]-3′ (SEQ ID NO: 40) and reverse primer: 5′-[…]-3′ (SEQ ID NO: 41); fra-1 forward primer: 5′-ACC-[…]-[…]-3′ (SEQ ID NO: 42) and reverse primer: 5′-[…]-TT-3′ (SEQ ID NO: 43). β-actin was used for normalization. […]
(§2) 1 μg of mRNA, for each time point, was subjected to Real Time RT-PCR. Expression level of endogenous cyclin D1, c-myc, fibronectin, hnkd, axin2, c-jun, and BMP-4 were measured relative to β-actin. Quantitation of The ΔCycle of Threshold (CT) values was determined by subtracting the average values of each set by the corresponding average values obtained for β-actin. […]
(§3) The cyclin D1 gene is inappropriately expressed in many different tumor types, and is known to be a direct target of the Wnt/β-catenin pathway (Shtutman et al., “The cyclin D1 gene is a target of the beta-catenin/LEF-1 pathway,” Proc. Natl. Acad. Sci. USA 96:5522-27 (1999); Tetsu et al., “Beta-catenin regulates expression of cyclin D1 in colon carcinoma cells,” Nature 398:422-26 (1999)). […] Expression level of endogenous cyclin D1, c-myc, fibronectin, hnkd, axin2, c-jun, and BMP-4 were measured relative to β-actin. Quantitation of The ΔCycle of Threshold (CT) values was determined by subtracting the average values of each set by the corresponding average values obtained for β-actin. […]

axin2 = assay: Real Time RT-PCR in SW480 cells, axin2; conditions: 25 μM; for ΔCT axin2: relative to β-actin
Description: as §1, §2, §3

SW480 cells = assay: FACS cell cycle analysis (propidium iodide), SW480 cells; conditions: 25 μM, 24 hours
Description: FIG. 6. • A. COMPOUND 1 arrests cells in G1. FACS analysis was performed on SW480 (lower panel) and HCT116 (upper panel) cells treated for 24 hours with either COMPOUND 1 (25 μM) (right) or control (0.5% DMSO (left). 5.5×10^6 cells were fixed and stained with propidium iodide (PI). G0/G1, S, and G2/M are indicated by arrows. • B. COMPOUND 1 selectively activates caspases in colon carcinoma cell lines. SW480 and HCT116 (left graph) cells (10^5) along with the normal colonocytes, CCD18Co (right graph) were treated with either control (0.5% DMSO) or COMPOUND 1 (25 μM). 24 hours post treatment, cells were lysed and the caspase-3/7 enzymatic activities were measured. Relative fluorescence units (RFU) were calculated by subtracting the unit values of the blank (control, without cells) from the treated samples (COMPOUND 1 or control) and plotted.
For FACS analysis, approx. 5×10^6 cells from PNRI-treated or vehicle-treated were fixed with 70% chilled ethanol and stored at −20° C. for at least 30 minutes. […] 10,000 stained cells for each sample were acquired using Beckman Coulter EPICS XL-MCL Flow Cytometry and the percentage of cells in different phase of the cell cycle was determined by Expo32 ADC software (Coulter Corporation, Miami, Fla., 33196). […]

O=C1C(Cc2ccc(O)cc2)N2C(=O)CCN(C(=O)NCc3ccccc3)C2CN1Cc1cccc2ccccc12 (stereo not shown) [COMPOUND 1]
mRNA cyclin D1 (direction) (cyclin D1): ↓ | ΔCT cyclin D1 (cyclin D1; 4 hours): 0.6 | ΔCT cyclin D1 (cyclin D1; 24 hours): 3.1 | mRNA axin2 (direction) (axin2): ↓ | ΔCT axin2 (axin2; 4 hours): 0.3 | ΔCT axin2 (axin2; 8 hours): 0.8 | Cell cycle distribution (DNA content by FACS) (SW480 cells): increased accumulation at G1/S-phase
